Results: US6429312B2, “N-aminoalkyldibenzothiopencarboxamide receptor subtype specific ligands” (Neurogen Corporation, priority 1996, dated 2002)
Structures can show the parent of a compound that is named as a salt. Where two headings read alike, the source gives them in different places. Each block holds one molecule with its values, some of them ahead of it.

Key:
D3 receptors = molecular target: T1, D3 receptors (Chlorocebus aethiops, UniProt P52703); experiment: D3 receptor binding assay (3H-YM 09151-2 displacement); set-up: species or system African Green monkey
T1 construct: expressed in transfected cells; host or cells: COS cells
T1 sequence (P52703 whole entry): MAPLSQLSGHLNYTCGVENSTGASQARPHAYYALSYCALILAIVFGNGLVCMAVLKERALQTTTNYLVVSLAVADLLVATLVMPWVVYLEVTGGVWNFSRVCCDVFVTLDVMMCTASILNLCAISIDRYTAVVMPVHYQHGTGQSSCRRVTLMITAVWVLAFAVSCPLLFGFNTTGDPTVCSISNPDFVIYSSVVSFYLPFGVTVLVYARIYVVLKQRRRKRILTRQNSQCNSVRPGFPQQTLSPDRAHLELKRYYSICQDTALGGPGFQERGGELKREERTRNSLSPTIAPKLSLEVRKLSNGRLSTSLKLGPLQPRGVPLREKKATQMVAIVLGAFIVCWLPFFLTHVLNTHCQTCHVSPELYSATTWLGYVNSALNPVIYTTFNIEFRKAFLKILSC
Protocol: (§1) ASSAY FOR D2 AND D3 RECEPTOR BINDING ACTIVITY
(§2) Pellets of COS cells containing recombinantly produced D2 or D3 receptors from African Green monkey were used for the assays. The sample is homogenized in 100 volumes (w/vol) of 0.05 M Tris HCl buffer at 4° C. and pH 7.4. The sample is then centrifuged at 30,000×g and resuspended and rehomogenized. The sample is then centrifuged as described and the final tissue sample is frozen until use. The tissue is resuspended 1:20 (wt/vol) in 0.05 M Tris HCl buffer containing 100 mM NaCl.
(§3) Incubations are carried out at 48° C. and contain 0.4 ml of tissue sample, 0.5 nM ^3H-YM 09151-2 and the compound of interest in a total incubation of 1.0 ml. Nonspecific binding is defined as that binding found in the presence of […] spiperone; without further additions, nonspecific binding is less than 20% of total binding. The binding characteristics of representative compounds of the invention for D2 and D3 receptor subtypes are shown in Table 2 for rat striatal homogenates.

D2 receptors = molecular target: T2, D2 receptors (Chlorocebus aethiops, UniProt P52702); experiment: D2 receptor binding assay (3H-YM 09151-2 displacement); set-up: species or system African Green monkey
T2 construct: expressed in transfected cells; host or cells: COS cells
T2 sequence (P52702 whole entry): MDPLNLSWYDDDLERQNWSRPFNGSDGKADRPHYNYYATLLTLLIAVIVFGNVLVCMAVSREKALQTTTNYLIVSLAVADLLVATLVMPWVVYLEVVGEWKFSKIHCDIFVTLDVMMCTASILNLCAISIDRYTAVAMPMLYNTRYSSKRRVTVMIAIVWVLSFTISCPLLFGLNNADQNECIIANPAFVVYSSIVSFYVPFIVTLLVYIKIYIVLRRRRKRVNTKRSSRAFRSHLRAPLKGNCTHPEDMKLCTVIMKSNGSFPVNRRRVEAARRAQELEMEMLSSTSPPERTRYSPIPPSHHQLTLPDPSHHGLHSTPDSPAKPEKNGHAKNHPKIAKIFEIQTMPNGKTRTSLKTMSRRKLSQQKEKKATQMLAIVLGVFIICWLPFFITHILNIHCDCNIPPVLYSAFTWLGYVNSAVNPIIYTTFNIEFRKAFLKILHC
Protocol: as §1, §2, §3

melting point: 225 to 228 °C
SMILES: O=C(NCCCCN1CCN(c2cccc3ccccc23)CC1)c1ccc2sc3ccccc3c2c1 (as salt: hydrochloride) [Compound 2, N-(1-{4-[4-(1-Naphthyl)piperazin-1-yl]}butyl)-2-dibenzothiophenecarboxamide hydrochloride]

SMILES: O=C(NCCCCN1CCN(c2cccc(Cl)c2Cl)CC1)c1ccc2sc3ccccc3c2c1 [Compound 1, N-(1-{4-[4-(2,3-Dichlorophenyl)piperazin-1-yl]}butyl)-2-dibenzothiophenecarboxamide hydrochloride]
Ki (D3 receptors): 0.0035 µM
Ki (D2 receptors): 0.285 µM

Ki (D3 receptors; COS cells containing recombinantly produced D3 receptors, 0.5 nM 3H-YM 09151-2, nonspecific binding with 1 mM spiperone, read-out: D3 Ki): 0.005 µM
Ki (D2 receptors; COS cells containing recombinantly produced D2 receptors, 0.5 nM 3H-YM 09151-2, nonspecific binding with 1 mM spiperone, read-out: D2 Ki): 0.242 µM
SMILES: O=C(NCCCCN1CCN(c2cccc3ccccc23)CC1)c1ccc2sc3ccccc3c2c1 [Compound 2, N-(1-{4-[4-(1-Naphthyl)piperazin-1-yl]}butyl)-2-dibenzothiophenecarboxamide hydrochloride]
